PMC11750672, “The in vivo metabolic pathway of Deg-AZM and in vitro investigations into the contribution of drug metabolizing enzymes and drug transporters in the drug interactions of Deg-AZM, a clinical-stage new transgelin agonist” (Frontiers in Pharmacology, 2025)

Columns and labels:
P-gp [1] = target: T1, P-gp (Homo sapiens, UniProt P08183); test: Bidirectional transport in Caco-2 cell monolayer with P-gp inhibitor quinidine; type: in vitro ADME; conditions: ER > 2, reduced after quinidine
T1 construct: evaluated using Caco-2 cell monolayer both apical-to-basolateral (A-B) and basolateral-to-apical (B-A) directions; endogenous in cells; host or cells: Caco-2
Description: (§1) The human colon adenocarcinoma Caco-2 cell line was provided by Institute of Basic Medicine, Chinese Academy of Medical Sciences (Beijing, China). Caco-2 cells were cultured in a high sugar DMEM medium containing 10% (v/v) fetal bovine serum at 37°C and 5% CO2 incubator. Caco-2 cells (2.5 ×10^5/mL) was inoculated into Transwell polycarbonate membrane 12 well plate. The culture medium was changed every 2 days for the first 14 days, and then every day. After 21 consecutive days, fully differentiated cell monolayers were obtained for drug transport assays.
(§2) Transepithelial electrical resistance (TEER) was used to indicate monolayer integrity. The electrode of the Millcell ERS-2 voltammeter was placed in HBSS solution for 20 min to pre-balance. At the same time, the culture medium was removed from the Transwell culture plate, 0.5 mL of pre-heated HBSS solution was added into the Apical (AP) of transwell, 1.5 mL of pre-heated HBSS solution was added into the Basolateral (BL) of transwell. After that, the transwell was balanced at 37°C for 20 min and then replaced the HBSS solution with the pre-heated HBSS solution, the TEER value was measured finally. Caco-2 cell monolayers with TEER >350 Ω cm^2 which means that the cells have formed a tight monolayer, were used for the experiment. The TEER value was calculated according to the following formula: TEER=TEERT ‐ TEERc×A where TEERT represented the TEER value (Ω) of the measured Transwell chamber with Caco-2 cells, TEERC was the TEER value (Ω) of the transwell chamber in the control group, and A was the membrane area of the transwell cavity (1.12 cm^2 in this experiment).
(§3) In order to evaluate the usability of the Transwell model research, [^3H] Propranolol (0.5 μCi/mL) and [^14C] PEG4000 (1 μCi/mL) served as high-permeability and impermeability controls to verify the uptake direction on Caco-2 cell monolayer, respectively. Rhodamine 123 was used as a positive control for efflux mechanism in bidirectional transport assay on Caco-2 cell monolayer.
(§4) The transmembrane permeability of Deg-AZM (2, 10 or 50 µM) and the potential to inhibit P-gp by Deg-AZM (2, 10 or 50 µM) were evaluated using Caco-2 cell monolayer both apical-to-basolateral (A-B) and basolateral-to-apical (B-A) directions at 37°C for 1 h, the experiments were conducted using quinidine (50 μM) as the inhibitor for P-gp. At the end of incubation, receiver and donor samples were both diluted by assay buffer and analyzed by LC-MS/MS.

P-gp [2] = system: T2, P-gp; test: as above; type: in vitro ADME, human; conditions: human, Caco-2, with quinidine 50 μM, (+) quinidine 50 μM, 37°C 1 h, n = 3
T2 construct: evaluated using Caco-2 cell monolayer both apical-to-basolateral (A-B) and basolateral-to-apical (B-A) directions; endogenous in cells; host or cells: Caco-2
Description: as §1, §2, §3, §4

T1 sequence (P08183 whole entry): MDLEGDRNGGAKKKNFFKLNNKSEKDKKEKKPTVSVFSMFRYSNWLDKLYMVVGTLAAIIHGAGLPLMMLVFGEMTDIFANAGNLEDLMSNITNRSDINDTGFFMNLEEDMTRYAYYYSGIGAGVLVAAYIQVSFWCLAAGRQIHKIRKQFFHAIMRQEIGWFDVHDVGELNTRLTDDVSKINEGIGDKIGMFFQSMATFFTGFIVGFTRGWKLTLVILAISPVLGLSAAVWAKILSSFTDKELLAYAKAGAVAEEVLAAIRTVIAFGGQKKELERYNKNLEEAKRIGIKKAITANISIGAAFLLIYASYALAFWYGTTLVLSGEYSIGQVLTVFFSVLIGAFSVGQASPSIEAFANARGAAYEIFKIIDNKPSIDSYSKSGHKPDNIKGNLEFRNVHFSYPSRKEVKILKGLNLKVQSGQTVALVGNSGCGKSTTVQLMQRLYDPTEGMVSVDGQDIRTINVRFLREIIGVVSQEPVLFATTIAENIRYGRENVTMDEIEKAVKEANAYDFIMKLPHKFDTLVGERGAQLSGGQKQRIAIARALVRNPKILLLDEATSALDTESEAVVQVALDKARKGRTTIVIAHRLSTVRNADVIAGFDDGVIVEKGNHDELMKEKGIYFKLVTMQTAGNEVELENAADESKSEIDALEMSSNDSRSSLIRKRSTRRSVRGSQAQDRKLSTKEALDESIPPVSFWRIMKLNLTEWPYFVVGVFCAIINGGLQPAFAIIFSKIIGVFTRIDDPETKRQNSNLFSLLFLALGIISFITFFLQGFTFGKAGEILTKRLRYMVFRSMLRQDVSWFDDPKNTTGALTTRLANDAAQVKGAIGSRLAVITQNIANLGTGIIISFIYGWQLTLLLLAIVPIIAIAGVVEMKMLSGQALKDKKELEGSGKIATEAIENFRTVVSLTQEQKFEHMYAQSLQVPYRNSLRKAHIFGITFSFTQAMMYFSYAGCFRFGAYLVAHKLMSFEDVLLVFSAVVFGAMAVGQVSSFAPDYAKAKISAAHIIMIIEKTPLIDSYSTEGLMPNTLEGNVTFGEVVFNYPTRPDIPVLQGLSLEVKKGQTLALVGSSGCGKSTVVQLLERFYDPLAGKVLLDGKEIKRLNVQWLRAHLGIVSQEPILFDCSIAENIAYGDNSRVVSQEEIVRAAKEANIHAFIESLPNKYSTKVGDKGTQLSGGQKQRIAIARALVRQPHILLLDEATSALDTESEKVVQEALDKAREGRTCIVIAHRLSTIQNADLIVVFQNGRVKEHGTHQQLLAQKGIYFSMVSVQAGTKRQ

CCC1OC(=O)C(C)C(O)C(C)C(O)C(C)(O)CC(C)CN(C)C(C)C(O)C1(C)O (stereo not shown) [Deg-AZM, Deglycosylated azithromycin]
P-gp substrate assessment (P-gp [1]): might be the substrate of intestinal efflux transporter P-gp
Papp A→B at 1 h, 2 μM (P-gp [2]; 2 μM): 0.823 ± 0.0911 ×10⁻⁶ cm/s
Papp B→A at 1 h, 2 μM (P-gp [2]; 2 μM): 0.617 ± 0.0488 ×10⁻⁶ cm/s
Papp A→B at 1 h, 10 μM (P-gp [2]; 10 μM): 0.471 ± 0.0908 ×10⁻⁶ cm/s
Papp B→A at 1 h, 10 μM (P-gp [2]; 10 μM): 0.52 ± 0.119 ×10⁻⁶ cm/s
Papp A→B at 1 h, 50 μM (P-gp [2]; 50 μM): 0.589 ± 0.0315 ×10⁻⁶ cm/s
Papp B→A at 1 h, 50 μM (P-gp [2]; 50 μM): 0.586 ± 0.117 ×10⁻⁶ cm/s
